In one experiment the target is unphosphorylated-BTK kinase domain (UP-BTK), GST-tagged human BTK (389-659aa) (Homo sapiens (Human), UniProt Q06187). Description: BTK kinase Lanthascreen binding assay. The settings on record: unphosphorylated-BTK kinase domain, 50 nM Tracer 236, 60 minutes; pIC50 = negative log of the IC50 in molar. The method, boiled down: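 Compound binding to the unphosphorylated kinase domain was monitored by displacement of a fluorescently labelled tracer in a Lanthascreen format. Potency is given as pIC50, the negative log of the molar IC50.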
Chain of unphosphorylated-BTK kinase domain (UP-BTK), GST-tagged human BTK (389-659aa) (Q06187 389-659): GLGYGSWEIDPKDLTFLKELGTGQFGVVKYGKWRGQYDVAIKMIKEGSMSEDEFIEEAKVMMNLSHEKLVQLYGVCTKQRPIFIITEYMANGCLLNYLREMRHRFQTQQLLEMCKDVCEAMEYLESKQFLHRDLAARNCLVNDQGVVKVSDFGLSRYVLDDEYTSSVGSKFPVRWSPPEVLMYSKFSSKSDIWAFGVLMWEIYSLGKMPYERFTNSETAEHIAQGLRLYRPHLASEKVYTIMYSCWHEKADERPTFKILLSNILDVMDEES
In the case of `C=CS(=O)(=O)N1CC[C@@H](NC(=O)c2sc3nccc4c3c2NC(=O)N4c2ccc(Oc3ccccc3)cc2C)C1` [Example 369, (R)-5-(2-Methyl-4-phenoxyphenyl)-4-oxo-N-(1-(vinylsulfonyl)pyrrolidin-3-yl)-4,5-dihydro-3H-1-thia-3,5,8-triazaacenaphthylene-2-carboxamide], the “BTK_I_binding pIC50” value was determined as 7.8. The same measure, in the same setting: then `Cc1cc(Oc2ccccc2)ccc1N1C(=O)Nc2c(C(=O)N[C@@H]3CCCN(C(=O)/C=C/CN(C)C)C3)sc3nccc1c23` [Example 371, (R,E)-N-(1-(4-(Dimethylamino)but-2-enoyl)piperidin-3-yl)-5-(2-methyl-4-phenoxyphenyl)-4-oxo-4,5-dihydro-3H-1-thia-3,5,8-triazaacenaphthylene-2-carboxamide], with 7.0; and `C=CS(=O)(=O)N1CCC[C@@H](NC(=O)c2sc3nccc4c3c2NC(=O)N4c2ccc(Oc3ccccc3)cc2C)C1` [Example 372, (R)-5-(2-Methyl-4-phenoxyphenyl)-4-oxo-N-(1-(vinylsulfonyl)piperidin-3-yl)-4,5-dihydro-3H-1-thia-3,5,8-triazaacenaphthylene-2-carboxamide], with 7.6. Still for that read-out and setting: the figure for `CN(C)C/C=C/C(=O)N1CCC[C@@H](NC(=O)c2sc3nccc4c3c2NC(=O)N4c2ccc(Oc3ccccc3)cc2)C1` [Example 373, (R,E)-N-(1-(4-(Dimethylamino)but-2-enoyl)piperidin-3-yl)-4-oxo-5-(4-phenoxyphenyl)-4,5-dihydro-3H-1-thia-3,5,8-triazaacenaphthylene-2-carboxamide] is 7.3.

On to `Cc1cc(Oc2ccccc2)ccc1N1C(=O)Nc2c(C(=O)N[C@@H]3CCCN(C(=O)/C=C/CS(C)(=O)=O)C3)sc3nccc1c23` [Example 374, (R,E)-5-(2-Methyl-4-phenoxyphenyl)-N-(1-(4-(methylsulfonyl)but-2-enoyl)piperidin-3-yl)-4-oxo-4,5-dihydro-3H-1-thia-3,5,8-triazaacenaphthylene-2-carboxamide], for which the “BTK_I_binding pIC50” value came out at 7.0.

As for `CNC/C=C/C(=O)N1CC[C@@H](NC(=O)c2sc3nccc4c3c2NC(=O)N4c2ccc(Oc3ccccc3)cc2C)C1` [Example 377, (R,E)-5-(2-Methyl-4-phenoxyphenyl)-N-(1-(4-(methylamino)but-2-enoyl)pyrrolidin-3-yl)-4-oxo-4,5-dihydro-3H-1-thia-3,5,8-triazaacenaphthylene-2-carboxamide], the “BTK_I_binding pIC50” value was 7.5.

For `Cc1cc(Oc2ccccc2)ccc1N1C(=O)Nc2c(C(=O)N[C@@H]3CCN(C(=O)/C=C/CN)C3)sc3nccc1c23` [Example 382, (R,E)-N-(1-(4-Aminobut-2-enoyl)pyrrolidin-3-yl)-5-(2-methyl-4-phenoxyphenyl)-4-oxo-4,5-dihydro-3H-1-thia-3,5,8-triazaacenaphthylene-2-carboxamide], the “BTK_I_binding pIC50” value is on record as 7.3. The same measure, in the same setting: then `Cc1cc(Oc2ccccc2)ccc1N1C(=O)Nc2c(C(=O)N[C@@H]3CCCN(C(=O)/C=C/CNS(C)(=O)=O)C3)sc3nccc1c23` [Example 383, (R,E)-5-(2-Methyl-4-phenoxyphenyl)-N-(1-(4-(methylsulfonamido)but-2-enoyl)piperidin-3-yl)-4-oxo-4,5-dihydro-3H-1-thia-3,5,8-triazaacenaphthylene-2-carboxamide], with 7.2; and `Cc1cc(Oc2ccccc2)ccc1N1C(=O)Nc2c(C(=O)N[C@@H]3CCN(C(=O)CN(C)C)C3)sc3nccc1c23` [Example 384, (R)—N-(1-(2-(Dimethylamino)acetyl)pyrrolidin-3-yl)-5-(2-methyl-4-phenoxyphenyl)-4-oxo-4,5-dihydro-3H-1-thia-3,5,8-triazaacenaphthylene-2-carboxamide], with 7.1; and `C/C=C(\C#N)C(=O)N1CCC[C@@H](NC(=O)c2sc3nccc4c3c2NC(=O)N4c2ccc(Oc3ccccc3)cc2C)C1` [Example 385, (R,E)-N-(1-(2-Cyanobut-2-enoyl)piperidin-3-yl)-5-(2-methyl-4-phenoxyphenyl)-4-oxo-4,5-dihydro-3H-1-thia-3,5,8-triazaacenaphthylene-2-carboxamide], with 7.9. The same measure, in the same setting: then `Cc1cc(Oc2ccccc2)ccc1N1C(=O)Nc2c(C(=O)N[C@@H]3CCCN(C(=O)[C@@H]4CCN4)C3)sc3nccc1c23` [Example 386, N—((R)-1-((S)-Azetidine-2-carbonyl)piperidin-3-yl)-5-(2-methyl-4-phenoxyphenyl)-4-oxo-4,5-dihydro-3H-1-thia-3,5,8-triazaacenaphthylene-2-carboxamide], with 6.9; and `CNC/C=C(\F)C(=O)N1CCC[C@@H](NC(=O)c2sc3nccc4c3c2NC(=O)N4c2ccc(Oc3ccccc3)cc2C)C1` [Example 388, (R,Z)—N-(1-(2-Fluoro-4-(methylamino)but-2-enoyl)piperidin-3-yl)-5-(2-methyl-4-phenoxyphenyl)-4-oxo-4,5-dihydro-3H-1-thia-3,5,8-triazaacenaphthylene-2-carboxamide], with 7.1.

`Cc1cc(Oc2ccccc2)ccc1N1C(=O)Nc2c(C(=O)N[C@@H]3CCCN(C(=O)CN4CCCC4)C3)sc3nccc1c23` [Example 389, (R)-5-(2-Methyl-4-phenoxyphenyl)-4-oxo-N-(1-(2-(pyrrolidin-1-yl)acetyl)piperidin-3-yl)-4,5-dihydro-3H-1-thia-3,5,8-triazaacenaphthylene-2-carboxamide]: the “BTK_I_binding pIC50” value is reported as 7.0. In the case of `C=CC(=O)N1CCC[C@@H](NCc2sc3nccc4c3c2NC(=O)N4c2ccc(Oc3ccccc3)cc2C)C1` [Example 390, (R)-2-(((1-Acryloylpiperidin-3-yl)amino)methyl)-5-(2-methyl-4-phenoxyphenyl)-3H-1-thia-3,5,8-triazaacenaphthylen-4(5H)-one], the “BTK_I_binding pIC50” value is on record as 6.9. On to `CNCC(=O)N1CC[C@@H](NC(=O)c2sc3nccc4c3c2NC(=O)N4c2ccc(Oc3ccccc3)cc2C)C1` [Example 391, (R)-5-(2-Methyl-4-phenoxyphenyl)-N-(1-(2-(methylamino)acetyl)pyrrolidin-3-yl)-4-oxo-4,5-dihydro-3H-1-thia-3,5,8-triazaacenaphthylene-2-carboxamide], for which the “BTK_I_binding pIC50” value is given as 7.2.

Turning to `Cc1cc(Oc2ccccc2)ccc1N1C(=O)Nc2c(C(=O)N[C@@H]3CCN(C(=O)CN)C3)sc3nccc1c23` [Example 392, (R)—N-(1-(2-Aminoacetyl)pyrrolidin-3-yl)-5-(2-methyl-4-phenoxyphenyl)-4-oxo-4,5-dihydro-3H-1-thia-3,5,8-triazaacenaphthylene-2-carboxamide], the “BTK_I_binding pIC50” value came out at 7.4.

The experiment is the same for the next values; noted with them: unphosphorylated-BTK kinase domain, 50 nM Tracer 236, 60 minutes; pIC50 = negative log of the IC50 in molar; read-out: BTK_I_binding pIC50 (converted).
For the compound `[2H]C([2H])([2H])N1CCC[C@@H](NC(=O)c2sc3nccc4c3c2NC(=O)N4c2ccc(Oc3ccccc3)cc2C)C1` [Example 370, (R)-5-(2-Methyl-4-phenoxyphenyl)-N-(1-trideuteriomethylpiperidin-3-yl)-4-oxo-4,5-dihydro-3H-1-thia-3,5,8-triazaacenaphthylene-2-carboxamide], the IC50 is 0.1 µM.

`[2H]c1c([2H])c([2H])c(Oc2ccc(N3C(=O)Nc4c(C(=O)N[C@@H]5CCCN(C(=O)C=C)C5)sc5nccc3c45)c(C)c2)c([2H])c1[2H]` [Example 375, (R)—N-(1-Acryloylpiperidin-3-yl)-5-(2-methyl-4-(2,3,4,5,6-pentadeuteriophenoxy)phenyl)-4-oxo-4,5-dihydro-3H-1-thia-3,5,8-triazaacenaphthylene-2-carboxamide]: the IC50 is 0.0126 µM.

`[2H]c1c([2H])c([2H])c(Oc2ccc(N3C(=O)Nc4c(C(=O)N[C@@H]5CCN(C(=O)C=C)C5)sc5nccc3c45)c(C)c2)c([2H])c1[2H]` [Example 376, (R)—N-(1-Acryloylpyrrolidin-3-yl)-5-(2-methyl-4-(2,3,4,5,6-pentadeuteriophenoxy)phenyl)-4-oxo-4,5-dihydro-3H-1-thia-3,5,8-triazaacenaphthylene-2-carboxamide]: the IC50 was 0.0158 µM. On the same count and under the same terms, the figure for `[2H]c1c([2H])c([2H])c(Oc2ccc(N3C(=O)Nc4c(C(=O)N[C@@H]5CCCN(C(=O)/C(C#N)=C/C6CC6)C5)sc5nccc3c45)c(C)c2)c([2H])c1[2H]` [Example 378, (R,E)-N-(1-(2-Cyano-3-cyclopropylacryloyl)piperidin-3-yl)-5-(2-methyl-4-(2,3,4,5,6-pentadeuteriophenoxy)phenyl)-4-oxo-4,5-dihydro-3H-1-thia-3,5,8-triazaacenaphthylene-2-carboxamide] is 0.0316 µM. Consider `[2H]c1c([2H])c([2H])c(Oc2ccc(N3C(=O)Nc4c(C(=O)N[C@@H]5CCCN(C#N)C5)sc5nccc3c45)c(C)c2)c([2H])c1[2H]` [Example 379, (R)—N-(1-Cyanopiperidin-3-yl)-5-(2-methyl-4-(2,3,4,5,6-pentadeuteriophenoxy)phenyl)-4-oxo-4,5-dihydro-3H-1-thia-3,5,8-triazaacenaphthylene-2-carboxamide], for which the IC50 is 0.0316 µM. Same read-out and setting: the figure for `[2H]c1c([2H])c([2H])c(Oc2ccc(N3C(=O)Nc4c(C(=O)N[C@@H]5CCCN(C([2H])([2H])[2H])C5)sc5nccc3c45)c(C)c2)c([2H])c1[2H]` [Example 380, (R)-5-(2-Methyl-4-(2,3,4,5,6-pentadeuteriophenoxy)phenyl)-N-(1-(trideuteriomethyl)piperidin-3-yl)-4-oxo-4,5-dihydro-3H-1-thia-3,5,8-triazaacenaphthylene-2-carboxamide] is 0.158 µM. Same read-out and setting: the figure for `[2H]c1c([2H])c([2H])c(Oc2ccc(N3C(=O)Nc4c(C(=O)N[C@@H]5CCCN(C)C5)sc5nccc3c45)c(C)c2)c([2H])c1[2H]` [Example 381, (R)-5-(2-Methyl-4-(2,3,4,5,6-pentadeuteriophenoxy)phenyl)-N-(1-methylpiperidin-3-yl)-4-oxo-4,5-dihydro-3H-1-thia-3,5,8-triazaacenaphthylene-2-carboxamide] is 0.0794 µM.

Values taken from patent US10800792B2, “Inhibitors of Bruton's tyrosine kinase and method of their use” (JANSSEN PHARMACEUTICA NV, priority 2015, dated 2020).
